From patent publication US8921397B2, “Benzofurane-piperidine compounds” (Hoffmann-La Roche Inc., priority 2011, dated 2014)

Key:
[1] = target: human D3 receptor (Homo sapiens (Human), UniProt P35462); assay: Radioligand binding ([3H]-spiperone) to human D3 receptor, HEK293 EBNA membranes; conditions: HEK293 EBNA cells expressing human D3 receptor
Experimental: (§1) HEK293 EBNA cells were transiently transfected with expression plasmids encoding for the human D2 or D3 or for the human 5-HT2A receptor, respectively. The cells were harvested 48 h post-transfection, washed three times with cold PBS and stored at −80° C. prior to use. The pellet was suspended in cold 50 mM Tris-HCl buffer containing 10 mM EDTA (pH 7.4) and was homogenized with a Polytron (Kinematica AG, Basel, Switzerland) for 20-30 sec at 12.000 rpm. After centrifugation at 48.000×g for 30 min at 4° C., the pellet was resuspended in cold 10 mM Tris-HCl buffer containing 0.1 mM EDTA (pH 7.4), homogenized, and centrifuged as above. This pellet was further resuspended in a smaller volume of ice cold 10 mM Tris-HCl buffer containing 0.1 mM EDTA (pH 7.4) and homogenized with a Polytron for 20-30 sec at 12.000 rpm. The protein content of this homogenate was determined with the Bio-Rad (Bradford) Protein Assay (Biorad Laboratories GmbH, München, Germany) according to the instructions of the manufacturer using gamma globulin as the standard. This homogenate was stored at −80° C. in aliquots and thawed immediately prior to use.
(§2) Aliquots of membrane preparations were thawed at RT, resuspended in assay buffer (D2, D3: 50 mM Tris-HCl, 120 mM NaCl, 5 mM MgCl2, 1 mM EDTA, 5 mM KCl, 1.5 mM CaCl2, pH=7.4; 5-HT2A: 50 mM Tris-HCl, 10 mM MgCl2, 1 mM EGTA, pH=7.4), homogenized with a Polytron for 20-30 sec at 12.000 rpm and adjusted to a final concentration of approximately 7.5 μg protein/well (D2, D3) and 15 μg protein/well (5-HT2A), respectively.
(§3) The binding affinity (Ki) of the compounds was determined using radioligand binding.
(§4) Membranes were incubated in a total volume of 200 μl with a fixed concentration of radioligand (final concentration approximately 0.7 nM [^3H]-spiperone for D2, 0.5 nM [^3 H]-spiperone for D3, and 1.1 nM [^3H]-ketanserin for 5-HT2A) and ten concentrations of test compound in ranging between 10 μM-0.1 nM for 1 h at RT. At the end of the incubation, the reaction mixtures were filtered on to unifilter 96-well white microplates with bonded GF/C filters (Packard BioScience, Zürich, Switzerland; preincubated for 1 h in 0.1% polyethylenimine (PEI) in assay buffer) with a Filtermate 196 harvester (Packard BioScience) and washed 3 times with cold assay buffer. The nonspecific binding was determined with equally composed reaction mixtures in the presence of 10 μM unlabelled spiperone. Per well 45 μl of Microscint 40 (Perkin Elmer, Schwerzenbach, Switzerland) was added, plates for sealed, shaken for 20 min and counted for 3 min on a Topcount Microplate Scintillation Counter (Canberra Packard SA, Zürich, Switzerland) with quenching correction.
(§5) The CPM value for each duplicate of a concentration of competing compound was averaged (y1), then the % specific binding was calculated according to the equation (((y1−non-specific)/(total binding−non-specific))×100). Graphs were plotted with the % specific binding using XLfit, a curve-fitting program that iteratively plots the data using Levenberg-Marquardt algorithm. The single site competition analysis equation used was y=A+((B−A)/(1+((x/C)D))), where y is the % specific binding, A is the minimum y, B is the maximum y, C is the IC50, x is the log 10 of the concentration of the competing compound and D is the slope of the curve (the Hill Coefficient). From these curves the IC50 (inhibition concentration at which 50% specific binding of the radioligand was displaced) and Hill coefficient were determined. The affinity constant (Ki) was calculated using the Cheng-Prusoff equation Ki=(IC50/1+([L]/Kd), where [L] is the concentration of radioligand and Kd is the dissociation constant of the radioligand at the receptor as determined by the saturation isotherm.

[2] = target: human 5-HT2A receptor (Homo sapiens (Human), UniProt P28223); assay: Radioligand binding ([3H]-ketanserin) to human 5-HT2A receptor, HEK293 EBNA membranes; conditions: HEK293 EBNA cells expressing human 5-HT2A receptor
Experimental: The ability of the compounds to bind to the 5-HT2A, D3 and D2 receptors was determined using radioligand binding to cloned receptors selectively expressed in HEK-293 EBNA cells.
as §1, §2, §3, §4, §5

[3] = target: human D2 receptor (Homo sapiens (Human), UniProt P14416); assay: Radioligand binding ([3H]-spiperone) to human D2 receptor, HEK293 EBNA membranes; conditions: HEK293 EBNA cells expressing human D2 receptor
Experimental: as §1, §2, §3, §4, §5

Chain of human D2 receptor (P14416 whole entry): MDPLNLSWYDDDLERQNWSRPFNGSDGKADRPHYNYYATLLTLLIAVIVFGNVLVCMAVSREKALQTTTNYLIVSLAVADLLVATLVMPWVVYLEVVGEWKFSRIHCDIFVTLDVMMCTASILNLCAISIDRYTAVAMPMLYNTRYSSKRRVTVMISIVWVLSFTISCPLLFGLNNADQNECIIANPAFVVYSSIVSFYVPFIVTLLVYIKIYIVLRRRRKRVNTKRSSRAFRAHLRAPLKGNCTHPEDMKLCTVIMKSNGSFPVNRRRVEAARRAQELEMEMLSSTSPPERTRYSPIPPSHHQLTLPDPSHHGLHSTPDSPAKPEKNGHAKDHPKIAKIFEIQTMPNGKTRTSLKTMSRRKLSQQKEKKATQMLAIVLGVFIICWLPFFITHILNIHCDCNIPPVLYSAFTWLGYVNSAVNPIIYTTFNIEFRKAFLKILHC
Chain of human D3 receptor (P35462 whole entry): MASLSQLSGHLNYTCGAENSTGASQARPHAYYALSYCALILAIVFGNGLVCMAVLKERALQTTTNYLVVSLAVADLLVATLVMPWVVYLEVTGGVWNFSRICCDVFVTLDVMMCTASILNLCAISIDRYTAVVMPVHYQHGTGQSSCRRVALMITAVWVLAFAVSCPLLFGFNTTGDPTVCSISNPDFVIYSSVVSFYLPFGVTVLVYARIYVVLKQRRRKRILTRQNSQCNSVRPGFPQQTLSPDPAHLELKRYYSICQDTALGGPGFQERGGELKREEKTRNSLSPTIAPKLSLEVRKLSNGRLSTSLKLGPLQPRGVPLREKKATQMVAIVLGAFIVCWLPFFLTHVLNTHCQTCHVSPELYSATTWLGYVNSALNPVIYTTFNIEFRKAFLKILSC
Chain of human 5-HT2A receptor (P28223 whole entry): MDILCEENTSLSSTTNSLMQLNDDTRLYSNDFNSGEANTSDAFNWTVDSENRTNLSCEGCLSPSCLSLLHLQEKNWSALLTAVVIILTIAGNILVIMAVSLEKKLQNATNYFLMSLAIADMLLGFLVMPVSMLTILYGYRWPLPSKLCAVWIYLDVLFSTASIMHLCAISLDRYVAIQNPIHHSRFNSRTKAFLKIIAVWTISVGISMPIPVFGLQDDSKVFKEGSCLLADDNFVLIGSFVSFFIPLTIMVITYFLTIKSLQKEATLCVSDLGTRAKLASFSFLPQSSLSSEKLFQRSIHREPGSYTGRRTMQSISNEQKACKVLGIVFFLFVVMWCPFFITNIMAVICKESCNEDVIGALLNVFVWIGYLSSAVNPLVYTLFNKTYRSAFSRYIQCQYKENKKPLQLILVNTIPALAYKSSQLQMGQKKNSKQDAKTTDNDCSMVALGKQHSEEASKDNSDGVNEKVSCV

Row | SMILES | melting point [°C] | Ki [1] [nM] | Ki [2] [nM] | Ki [3] [nM]
1 | O=C(CC1COCCO1)N[C@H]1CC[C@H](CCN2CCC(c3coc4ccccc34)CC2)CC1 (mixture of isomers) [Example 8, trans-N-{4-[2-(4-Benzofuran-3-yl-piperidin-1-yl)-ethyl]-cyclohexyl}-(RS)-2-[1,4]dioxan-2-yl-acetamide] | 172 | 2.02 | 2.04 | –
2 | O=C(N[C@H]1CC[C@H](CCN2CCC(c3coc4ccccc34)CC2)CC1)C1CCOC1 (mixture of isomers) [Example 17, (RS)-Tetrahydro-furan-3-carboxylic acid trans-{4-[2-(4-benzofuran-3-yl-piperidin-1-yl)-ethyl]-cyclohexyl}-amide] | 183 | – | 5.93 | 53
3 | O=C(N[C@H]1CC[C@H](CCN2CCC(c3coc4ccccc34)CC2)CC1)C1CCCO1 (mixture of isomers) [Example 18, (RS)-Tetrahydro-furan-2-carboxylic acid trans-{4-[2-(4-benzofuran-3-yl-piperidin-1-yl)-ethyl]-cyclohexyl}-amide] | 132 | 9.2 | 2.88 | 81.5
4 | CCC(C)C(=O)N[C@H]1CC[C@H](CCN2CCC(c3coc4ccccc34)CC2)CC1 (mixture of isomers) [Example 31, trans-N-{4-[2-(4-Benzofuran-3-yl-piperidin-1-yl)-ethyl]-cyclohexyl}-(RS)-2-methyl-butyramide] | 172 | 4.83 | 6.56 | 46
5 | O=C(N[C@H]1CC[C@H](CCN2CCC(c3coc4ccccc34)CC2)CC1)C(O)C(F)(F)F (mixture of isomers) [Example 32, trans-N-{4-[2-(4-Benzofuran-3-yl-piperidin-1-yl)-ethyl]-cyclohexyl}-(RS)-3,3,3-trifluoro-2-hydroxy-propionamide] | 206 | 4.02 | 6.08 | 46.4
6 | CC(=O)N[C@H]1CC[C@H](CCN2CCC(c3coc4ccccc34)CC2)CC1 [Example 1, trans-N-{4-[2-(4-Benzofuran-3-yl-piperidin-1-yl)-ethyl]-cyclohexyl}-acetamide] | 162 | 1.08 | 5.08 | 50.4
7 | COCCC(=O)N[C@H]1CC[C@H](CCN2CCC(c3coc4ccccc34)CC2)CC1 [Example 2, trans-N-{4-[2-(4-Benzofuran-3-yl-piperidin-1-yl)-ethyl]-cyclohexyl}-3-methoxy-propionamide] | 136 | 1.22 | 4.63 | 71.2
8 | O=C(N[C@H]1CC[C@H](CCN2CCC(c3coc4ccccc34)CC2)CC1)C1CCOCC1 [Example 3, Tetrahydro-pyran-4-carboxylic acid trans-{4-[2-(4-benzofuran-3-yl-piperidin-1-yl)-ethyl]-cyclohexyl}-amide] | 175 | 4.53 | 2.44 | 37.3
9 | O=C(CC1CCOCC1)N[C@H]1CC[C@H](CCN2CCC(c3coc4ccccc34)CC2)CC1 [Example 4, trans-N-{4-[2-(4-Benzofuran-3-yl-piperidin-1-yl)-ethyl]-cyclohexyl}-2-(tetrahydro-pyran-4-yl)-acetamide] | 175 | 3.14 | 5.37 | 77.6
10 | CCC(=O)N[C@H]1CC[C@H](CCN2CCC(c3coc4ccccc34)CC2)CC1 [Example 5, trans-N-{4-[2-(4-Benzofuran-3-yl-piperidin-1-yl)-ethyl]-cyclohexyl}-propionamide] | 162 | 1.23 | 4.52 | 48.1
11 | COCC(=O)N[C@H]1CC[C@H](CCN2CCC(c3coc4ccccc34)CC2)CC1 [Example 6, trans-N-{4-[2-(4-Benzofuran-3-yl-piperidin-1-yl)-ethyl]-cyclohexyl}-2-methoxy-acetamide] | 115 | 3.52 | 3.36 | 80.1
12 | CS(=O)(=O)CC(=O)N[C@H]1CC[C@H](CCN2CCC(c3coc4ccccc34)CC2)CC1 [Example 7, trans-N-{4-[2-(4-Benzofuran-3-yl-piperidin-1-yl)-ethyl]-cyclohexyl}-2-methanesulfonyl-acetamide] | 187 | 1.45 | 3.54 | 50.8
13 | O=C(N[C@H]1CC[C@H](CCN2CCC(c3coc4ccccc34)CC2)CC1)c1ccccc1 [Example 9, trans-N-{4-[2-(4-Benzofuran-3-yl-piperidin-1-yl)-ethyl]-cyclohexyl}-benzamide] | 189 | 1.34 | 4.36 | 32.3
14 | Cc1cc(CC(=O)N[C@H]2CC[C@H](CCN3CCC(c4coc5ccccc45)CC3)CC2)on1 [Example 10, trans-N-{4-[2-(4-Benzofuran-3-yl-piperidin-1-yl)-ethyl]-cyclohexyl}-2-(3-methyl-isoxazol-5-yl)-acetamide] | 165 | 0.68 | 7.71 | 83.6
15 | O=C(CO)N[C@H]1CC[C@H](CCN2CCC(c3coc4ccccc34)CC2)CC1 [Example 11, trans-N-{4-[2-(4-Benzofuran-3-yl-piperidin-1-yl)-ethyl]-cyclohexyl}-2-hydroxy-acetamide] | 161 | 1.47 | 4.92 | 46.5
16 | O=C(CC(F)(F)F)N[C@H]1CC[C@H](CCN2CCC(c3coc4ccccc34)CC2)CC1 [Example 12, trans-N-{4-[2-(4-Benzofuran-3-yl-piperidin-1-yl)-ethyl]-cyclohexyl}-3,3,3-trifluoro-propionamide] | 182 | 0.99 | 8.06 | 42.7
17 | O=C(N[C@H]1CC[C@H](CCN2CCC(c3coc4ccccc34)CC2)CC1)c1ccc(N2CCOCC2)cc1 [Example 13, trans-N-{4-[2-(4-Benzofuran-3-yl-piperidin-1-yl)-ethyl]-cyclohexyl}-4-morpholin-4-yl-benzamide] | 249 | 7.4 | 11.1 | 406
18 | CC(C)C(=O)N[C@H]1CC[C@H](CCN2CCC(c3coc4ccccc34)CC2)CC1 [Example 14, trans-N-{4-[2-(4-Benzofuran-3-yl-piperidin-1-yl)-ethyl]-cyclohexyl}-isobutyramide] | 173 | 1.78 | 5.75 | 39.5
19 | CC(C)CC(=O)N[C@H]1CC[C@H](CCN2CCC(c3coc4ccccc34)CC2)CC1 [Example 15, trans-N-{4-[2-(4-Benzofuran-3-yl-piperidin-1-yl)-ethyl]-cyclohexyl}-3-methyl-butyramide] | 182 | 1.94 | 8.65 | 43.5
20 | CC(C)(O)C(=O)N[C@H]1CC[C@H](CCN2CCC(c3coc4ccccc34)CC2)CC1 [Example 16, trans-N-{4-[2-(4-Benzofuran-3-yl-piperidin-1-yl)-ethyl]-cyclohexyl}-2-hydroxy-2-methyl-propionamide] | 169 | 5.51 | 2.25 | 53.7
